Measurements as given in a melting point compilation (Tetko et al.; mined from patent text by program, amines drawn as free bases though some values may be those of a salt).

melting point [°C] | SMILES
69 to 71 | CSC(=C[N+](=O)[O-])NCCSCc1cc(C)c(CN(C)C)s1
195 to 197 | CCOC(=O)c1c(CCn2cncn2)nc2sc3c(c2c1-c1ccc(OC)c(OC)c1)CCN(C(=O)c1ccc(Cl)cc1)C3
161 to 162 | CCN1C(=O)C(=O)N(c2ccc(Cl)cc2C)C1=S
187 to 189 | O=C(O)Cn1c(=S)sc2ccccc21
216 | Cc1c(C(=O)Nc2nncs2)nnn1Cc1ccc(Cl)c(Cl)c1
133 to 135 | COc1ccc(-c2cc(CN3CCN(CCO)CC3)c(=O)n(CC=Cc3ccc(Cl)cc3)n2)cc1F
243 to 245 | COc1ccc(C2C3=C(COC3=O)Nc3ccc4cn[nH]c4c32)cc1O (centres undefined)
150 to 151 | Cc1nnc(-c2nnc(S)o2)o1
189 to 190 | CCCN(CCSc1nc(-c2ccccc2)c(-c2ccccc2)[nH]1)C(=O)Nc1ccc(F)cc1F
198 | COc1ccc(C(=O)c2cc(-c3ccc(NC(C)=O)cc3)c(N3CCOCC3)s2)cc1
215 to 220 | CC(=O)OCC1CCn2c(c(C3=C(c4cn(C)c5ccc(Br)cc45)C(=O)OC3=O)c3ccccc32)C1 (centres undefined)
219 to 220 | O=[N+]([O-])c1ccc2nc(-c3ccccc3)oc2n1
140 | S=C(Cc1ccccc1N1CCOCC1)N1CCOCC1
207 to 209 | Cc1cnc2c(C#N)c(C)nn2c1-c1cccnc1
129 to 130 | Cc1oc(-c2ccccc2)nc1COc1cc(COc2ncccc2CC(=O)O)on1
134 to 136 | Cc1ccc(C(=O)NCN2CCN(c3ncccc3C#N)CC2)cc1
88 to 89 | O=[N+]([O-])CCc1[nH]ccc1-c1ccc(I)cc1
175 | CC1=C(S(C)(=O)=O)C(c2ccccc2[N+](=O)[O-])C(C(=O)OC2CCCC2)=C(N=CN(C)C)N1 (centres undefined)
48.5 to 50 | CC(=O)OCc1cccc(-c2ccco2)c1C
171 to 172 | Cc1nnc(-c2ccc3occ(-c4ccc(S(=O)Cc5ccccc5C#N)cc4)c3c2)o1 (centres undefined)
141 to 143 | CCCCc1nc2c(N)nc3ccccc3c2n1CCCCC(=O)N1CCOCC1
104 to 106 | CC(=O)c1ccc(S(=O)(=O)N2CCCC(CO)C2)cc1 (centres undefined)
200 to 201 | O=C(O)c1cccc(C(c2cc(F)ccc2F)S(=O)(=O)c2ccc(Cl)cc2)n1 (centres undefined)
193 to 202 | O=C1N[C@@H](C(=O)NO)C[C@H]1c1ccc(-c2ccc(F)cc2)cc1

melting point [°C] | SMILES
190 to 191 | CCOC(=O)c1cc2ccc3c(c2cc1OC)OC(n1cccc1)=C(C#N)C3c1cccc([N+](=O)[O-])c1 (centres undefined)
153 to 154 | CCc1cc(O)cc2c3c([nH]c12)C(CC)(CC(=O)OC)OCC3 (centres undefined)
245 to 247 | Cc1nc2c(cc1C(=O)NC(=N)N)CCCCC2CS(=O)(=O)O (centres undefined)
144 to 146 | O=C(Nc1cc(Cl)cc(C(F)(F)F)c1)Oc1ccc([N+](=O)[O-])cc1
248 to 250 | O=C(O)c1cc2ccc3[nH]ccc3c2[nH]1
130 to 132 | O=C(O)COc1cccc2c1CCC(Cc1nc(C(c3ccccc3)c3ccccc3)co1)C2 (centres undefined)
48 to 50 | CC1(c2ccccc2)CCC(=O)CC1
105 to 107 | CCOC(=O)c1ncn(Cc2ccc(Cl)c(Cl)c2)c1C(=O)OCC
88 to 89 | COc1cc(Oc2ccc(Cl)cc2)ccc1[N+](=O)[O-]
57.7 to 57.9 | CCCCCCC(=O)Oc1ccc(-c2ccc(C#N)cc2)cc1
115 to 118 | Nc1ccc(Cc2ccc(CS(=O)(=O)NCc3ccccc3)cc2)cc1
94.8 to 96.9 | CCCCOP(=O)(OCCCC)OCN1C(=O)NC(c2ccccc2)(c2ccccc2)C1=O
156 | Cn1c(C2CC2)nc2c(O)c(C(=O)[C@H](O)[C@@H](O)c3ccccc3)ccc21
148 to 151 | O=C(NCc1ccc(Cl)cc1)c1cc(Br)c2cccnc2c1O
120 to 121 | COC(=O)CCC(=O)c1ccc(N2CCOCC2)cc1
221 to 222 | CC1(C)OC(=S)Nc2ccc(-c3cc(F)cc(Br)c3)cc21
110 to 112 | Cc1cnc(C(=O)NCCO[N+](=O)[O-])s1
217 | Cc1cc(F)ccc1-c1cncc(OC2SCC(O)C(O)C2O)c1 (centres undefined)
139 to 141 | Cc1cc(SCc2ccc(OCc3ccc(F)cc3F)cc2)ccc1OCC(=O)O
76 to 77 | CCCCCCCCCCCCCCCCOc1ccc(-c2nc(CC(=O)O)c(Oc3ccc(Cl)cc3)o2)cc1
214 to 217 | O=C(O)c1cc([N+](=O)[O-])ccc1Nc1ccc(CCc2ccc(Cl)c(Cl)c2)cc1
207 to 213 | O=C1c2c(cc(O)c(Cl)c2Cl)CC1(c1ccccc1)c1ccccc1
256 to 257 | Cc1ccc(-n2c(-c3sc(Nc4ccccc4)nc3C)nc3ccccc3c2=O)cc1
69 to 71 | C[Si](C)(C)OC(Cn1cncn1)(Cn1cncn1)c1ccc(F)cc1F

melting point [°C] | SMILES
90 | CC(C)(C)C(=O)COc1ccc(-c2ccc(Cl)cc2)cc1
209 to 211 | COCCc1sc2ncnc(N)c2c1-c1ccc(NC(=O)Nc2cc(C(F)(F)F)ccc2F)cc1
247 to 249 | COC(=O)Nc1cn2cc(Sc3ccccc3)ccc2n1
150 | COc1cccc(Oc2ccc3ccc(-c4cc(OC)ccc4C(N)=O)nc3n2)c1
65 to 66 | O=C(c1cccc(Oc2ccccc2)c1)c1cccc(Br)n1
258 to 261 | COc1cc2ncnc(NC3=CC(=O)C(Nc4ccccc4)=CC3=O)c2cc1OC
215 to 225 | COc1cc2c(cc1OC)CN(CCc1ccc(NC(=O)c3cccc4c(=O)c5cccc(OC)c5[nH]c34)cc1)CC2
170 to 171 | CCCCc1c(C)c2ccc(OCCCN3CCC(NC(=O)c4ccccc4)CC3)cc2oc1=O
254 to 256 | COc1cc2ncnc(N3CCN(C(=O)Nc4ccc(N5CCOCC5)cc4)CC3)c2cc1OC
97 to 99 | Nc1cc(C(F)(F)F)cnc1N
161 to 163 | COc1cc2c(cc1OC)C(CCCl)OCC2 (centres undefined)
105 to 108 | N#CC(N=C(c1ccccc1)c1ccccc1)c1ncc(C(F)(F)F)cc1Cl (centres undefined)
132 to 134 | CC(C)(C)c1ccc(C(=O)CCCN2CCC(C3(O)c4ccccc4CCc4ccccc43)CC2)cc1
88 to 90 | ClCCOc1ccc(/C=C/c2nc3ccccc3o2)cc1
194 to 197 | N#Cc1ccc(CCc2ccc(CN3C(=O)c4ccccc4C3=O)cc2)cc1
180 | CCOC(=O)C(=NOCC(N)=O)c1csc(NC(c2ccccc2)(c2ccccc2)c2ccccc2)n1
180 | CC(=O)OCc1cc(=O)c(Oc2ccc(F)cc2)c(-c2ccc(S(C)(=O)=O)cc2)o1
145 to 146 | COc1cn(-c2ccc(C#CC3CC3)cc2F)nc(-c2ccnn2-c2ccccc2)c1=O
120 to 124 | COc1ccccc1N1CCN(CCCNC(=O)c2cccc3c(=O)c(C)c(C4(C)CCCCC4)oc23)CC1
177 to 179 | CCN1CCN(C(=O)NC(C(=O)O)c2cc(OC(C)=O)c(OC(C)=O)cc2F)C(=O)C1=O (centres undefined)
79.5 | CC(C)CNC(=O)NCCCl
204 to 205 | CCOCc1nc2c(N)nc3ccccc3c2n1CCN1C(C)=NOC1(C)C
59 to 61 | COC(CC(=O)c1ccccc1)c1ccc(Cl)cc1F (centres undefined)
214 to 218 | CC1(C2=CCC3C4CCC5CC(O)CCC5(C)C4C(O)CC23C)OCCO1 (centres undefined)

melting point [°C] | SMILES
175 to 177 | O=C(c1ccc2c(c1)OCC(c1ccccc1)=N2)N1CCOCC1
128 to 129 | CC(C)COc1ccc(COc2ccc(CC(=O)O)cc2Cl)cc1Cl
192 | CC(=O)OCC(=O)C1C(C)CC2C3C=C(Cl)C4=CC(=O)C=CC4(C)C3C(O)CC21C (centres undefined)
244 to 245 | CC(C)(C)c1cc(-c2nnc(N)o2)cc(C(C)(C)C)c1O
121 to 122 | O=C(O)COc1ccc(SCc2cccc(OCc3ccc(Cl)c(C(F)(F)F)c3)c2)c2c1CCC2
184 to 187 | CC1=CC(c2ccc(Cl)cc2)C2=C(CCCC2=O)N1 (centres undefined)
255 to 259 | c1csc(Nc2ccnc3cn[nH]c23)c1
168 to 169 | CN(Cc1ccccc1)C1CCN(C(=O)c2ccc(-n3cncn3)cc2)CC1
178 to 179 | CCCOC(=O)Cc1ccc(N[C@@H](CCC(N)=O)C(=O)O)cc1
241 | CCS(=O)(=O)c1ccc2cc(C(=O)O)ccc2c1
239 to 240 | Cc1ccc(NC(=O)c2cccc(N(C)C)c2)cc1NC(=O)c1cccc(NS(C)(=O)=O)c1
225 to 228 | CC(=O)Nc1cccc(C(=O)c2[nH]c3cc(Cl)ccc3c2NC(C)=O)c1
163 to 165 | CC(=O)Nc1c(OC(C)=O)cc(C)cc1[N+](=O)[O-]
119 to 123 | COc1cccc(C=C2OC(=O)c3ccccc32)c1
193 to 195 | CN1C(=O)C(c2ccncc2)(c2ccc(OC(F)F)cc2)N=C1N (centres undefined)
98 to 99 | Cc1cccc(C)c1NC(=O)CCCc1cccnc1
149 to 151 | COc1ccc(-c2cc(C)cn2-c2ccc(S(N)(=O)=O)cc2)cc1C
74 to 75 | COc1ccc(OC)c2c1C(=O)C=C(SCCCCCCCCCCC(=O)NCC(C)C)C2=O
231 to 232 | CCOCc1nc2c(N)nc3cccnc3c2n1CCCC(N)=O
227 to 228 | Nc1cc(Cc2n[nH]c(=O)c3ccccc23)ccc1Cl
30 to 31 | CCCOc1nsnc1S(C)(=O)=O

SMILES | melting point [°C]
N#CN=C1NCCN1Cc1cccnc1 | 126 to 128
O=C(CCC(F)([N+](=O)[O-])[N+](=O)[O-])NNC(=O)C(F)(F)C(F)(F)F | 128 to 132
O=[N+]([O-])c1ccc(Cl)c(O)c1 | 115 to 117
CN1C(=O)CC(=O)N(C2CCCCC2)C1=O | 81 to 82
CCCN1CC(NC(=O)C(C)(C)C)CC2c3cccc4[nH]c(Br)c(c34)CC21 (centres undefined) | 182 to 183
O=[N+]([O-])C=C1CN=C(c2ccccc2F)c2cc(I)ccc2N1 | 214 to 216
